From US12582607B2, “Implantable medical devices for extended release of therapeutic agents” (Nano Precision Medical, Inc., priority 2014, dated 2026)

Experiments:
[1] = In vitro release of stabilizers from implantable devices and disassembly of the devices (Contemplated Examples); format: physicochemical; conditions: for pH maintained inside device: disassembly of devices at 2 months, 26 mM bis-tris buffer, 154 mM NaCl; for pH maintained inside device / duration for which stabilizer level (pH or concentration) is maintained in device: 37° C.; for release rate profile of stabilizer out of device through nanoporous membrane: in vitro testing, reverse phase HPLC; for duration for which stabilizer level (pH or concentration) is maintained in device: in vitro
Description: In the examples below the devices that are used include titanium capsules of approximately 25 mm length and 2.25 mm diameter. A titanium substrate with a titanium oxide nanoporous membrane is welded to one end of the device. […] A silicone septum is located at the other end of the device. Extended-release configurations of stabilizers, prepared as described further below, are incorporated into the reservoirs before final attachment of the membrane and septum on the device. A formulation solvent is filled into the device as per methods in PCT/US2021/019559. Briefly, the formulation solvent is loaded into a filler apparatus with a hollow needle to pierce the septum. A vacuum is applied to the membrane of the device to reduce the pressure inside the reservoir, and the formulation is injected through the septum into the reservoir through the needle. The durability of the presence of stabilizers inside devices of the disclosure may be tested by measuring release of the stabilizers from the devices in vitro. In vitro testing is performed by submerging the devices in 3 ml of a 26 mM bis-tris buffer, 154 mM NaCl on a shaker plate at 37° C. and measuring the amounts of stabilizer released at regular intervals by reverse phase HPLC.

[2] = cited from earlier work
[3] = Forced degradation study of exenatide with and without PLGA in titanium reservoirs with nanotube membrane; purity of released exenatide by HPLC; format: physicochemical; conditions: 37 C, devices in PBS pH 7.4 with full access to air; for Exenatide purity over time (% purity), 7 days: day 7; for Exenatide purity over time (% purity), 14 days: day 14; for Exenatide purity over time (% purity), 28 days: day 28; for Exenatide purity over time (% purity), 35 days: day 35; for Exenatide purity over time (% purity), 42 days: day 42; for Exenatide purity over time (% purity), 56 days: day 56
Description: To avoid confounding factors, no other stabilizers were used in the study.
The devices were incubated in phosphate buffered saline (pH 7.4) under full access to air (oxygen).

O=C(O)c1ccccc1 [benzoic acid]
pH maintained inside device [1]: below 6 | release rate profile of stabilizer out of device through nanoporous membrane [1]: declining with approximately the square root of time | duration for which stabilizer level (pH or concentration) is maintained in device [1]: at least 2 months

Cc1cc(C(C)(C)C)c(O)c(C(C)(C)C)c1 [butylated hydroxytoluene]
reported solubility in water [2]: about 1 ppm

[H]/N=C(\N/C(=N/[H])NCCCCCCNC(=N)NC(=N)Nc1ccc(Cl)cc1)Nc1ccc(Cl)cc1 [chlorhexidine, Chlorhexidine]
pH maintained inside device [1]: above 8 | release rate profile of stabilizer out of device through nanoporous membrane [1]: declining with approximately the square root of time | duration for which stabilizer level (pH or concentration) is maintained in device [1]: at least 2 months

Oc1ccc(O)cc1 [hydroquinone, Hydroquinone]
stabilizer concentration maintained in device ([1]; disassembly of devices at 4 months): at least 0.05% | release rate profile of stabilizer out of device through nanoporous membrane [1]: approximately constant rate | duration for which stabilizer level (pH or concentration) is maintained in device [1]: at least 4 months

CCCOC(=O)c1cc(O)c(O)c(O)c1 [propyl gallate]
stabilizer concentration maintained in device ([1]; disassembly of devices at 3 months): at least 0.05% | release rate profile of stabilizer out of device through nanoporous membrane [1]: declining with approximately the square root of time | duration for which stabilizer level (pH or concentration) is maintained in device [1]: at least 3 months

Exenatide only (Irradiated): E-beam irradiated (25k Gray) exenatide solution 200 mg/ml, no PLGA
Exenatide purity over time (% purity), 7 days [3]: 96 % purity | Exenatide purity over time (% purity), 14 days [3]: 91 % purity | Exenatide purity over time (% purity), 28 days [3]: 82 % purity | Exenatide purity over time (% purity), 35 days [3]: 75 % purity | Exenatide purity over time (% purity), 42 days [3]: 66 % purity | Exenatide purity over time (% purity), 56 days [3]: 51 % purity

Exenatide only: 20% (w/v) exenatide solution in Water For Injection with 0.04% NaN3, no PLGA, non-irradiated
Exenatide purity over time (% purity), 7 days [3]: 99 % purity | Exenatide purity over time (% purity), 14 days [3]: 89 % purity | Exenatide purity over time (% purity), 28 days [3]: 87 % purity | Exenatide purity over time (% purity), 35 days [3]: 82 % purity | Exenatide purity over time (% purity), 42 days [3]: 72 % purity | Exenatide purity over time (% purity), 56 days [3]: 62 % purity
